Results taken from patent US20260083687A1, “COMPOUNDS FOR REDUCING LACTATION AND IMPROVING HEALTH” (AHV International B.V., priority 2022, published 2026).

How the values were obtained:
[1] = tested on: cows (Holstein Friesians); assay: Dose-response DPD treatment and milk yield (Example 2); type: in vivo, cow; details: for Milk yield Last milking: before administration; for % reduction after 24 h / % reduction after 48 h / % reduction after 72 h / % reduction after 96 h: vs milk yield before treatment
From the text: Study design. Twenty-seven cows (Holstein Friesians) from 2 farms were used. […] The cows were milked twice a day. The cows were housed in free stables.
[…] For each dosage 3 cows were used.

[2] = tested on: Holstein Frisian dairy cows; assay: Effect of 80 ml synthetic DPD on udder pressure, stress behavior and milk leakage after abrupt dry off (Example 3); type: in vivo, cow
Description: Holstein Frisian dairy cows were selected with a production of at least 12.5 kg milk/day at the last lactation. These cows were immediately treated after the last milking before abrupt dry off with 80 ml di-n-propyl disulfide (DPD) took place in the three studies of this example. Because of a limited number of available cows, a control group was available only in study 3. Treated cows were monitored for udder pressure, milk leakage and stress after the last milking every 12 hours for the first 72 hours.
46 Dairy cows (Holstein Frisian) from 7 farms in The Netherlands were enrolled in this field study for two months. In table 8 a description is presented with respect to some keeping conditions of and information about the cows.
After the last milking, the cows were isolated from the other lactating cows. Only at farm 2 and 6 the cows could hear the milking machine. After isolation the cows were administered 80 ml synthetic DPD. Hereafter, the cows were monitored by the farmer for 72 hours and scored each 12 hour after abrupt dry off. The farmer scored visually for milk leakage (yes/no-scores), udder pressure and stress according to a standard scoring form (see tables 9 and 10). Cows somatic cell count numbers were extracted from the last milk recording before drying and the first milk recording after calving (5-30 Days In Lactation).
Data analysis: the control groups with respect to milk leakage, udder stress and stress were scored and compared with the data as presented earlier in literature. For milk leakage, the data were compared assumed that 24.5% of the cows are going to leak milk after drying off (De Prado-Taranilla et al., 2020. Incidence of milk leakage after dry-off in European dairy herds, related risk factors, and its role in new intramammary infections. Journal of Dairy Science, 103(10), 9224-9237.). Udder Pressure (Bertulat et al., 2013. Measurement of fecal glucocorticoid metabolites and evaluation of udder characteristics to estimate stress after sudden dry-off in dairy cows with different milk yields. Journal of Dairy Science, 96(6), 3774-3787) and Stress (Chapinal et al., 2014. Changes in lying behavior after abrupt cessation of milking and regrouping at dry-off in free stall-housed cows: A case study. Journal of Veterinary Behavior, 9(6), 364-369;) were translated to the scoring tables as expected outcome (table 11).

[3] = 80 ml synthetic DPD, abrupt dry off, vs control group

CCCSSCCC [DPD, di-n-propyl disulfide]
Average reduction 24 and 48 h (%) ([1]; 10 ml DPD): −3.3%
Milk yield After 24 h ([1]; 10 ml DPD): 14.45 kg
Milk yield After 48 h ([1]; 10 ml DPD): 13.98 kg
Milk yield After 72 h ([1]; 10 ml DPD): 12.99 kg
Milk yield After 96 h ([1]; 10 ml DPD): 13.78 kg
Milk yield Last milking ([1]; 10 ml DPD): 13.76 kg
% reduction after 24 h ([1]; 10 ml DPD): −5%
% reduction after 48 h ([1]; 10 ml DPD): −1.6%
% reduction after 72 h ([1]; 10 ml DPD): 5.6%
% reduction after 96 h ([1]; 10 ml DPD): 0%
Average reduction 24 and 48 h (%) ([1]; 20 ml DPD): 23%
Milk yield After 24 h ([1]; 20 ml DPD): 9.42 kg
Milk yield After 48 h ([1]; 20 ml DPD): 10.2 kg
Milk yield After 72 h ([1]; 20 ml DPD): 12.93 kg
Milk yield After 96 h ([1]; 20 ml DPD): 12.68 kg
effect on milk yield compared to the milk yield before treatment ([1]; 20 ml DPD): clear lowering on milk yield
Milk yield Last milking ([1]; 20 ml DPD): 12.72 kg
% reduction after 24 h ([1]; 20 ml DPD): 26%
% reduction after 48 h ([1]; 20 ml DPD): 20%
% reduction after 72 h ([1]; 20 ml DPD): −1.7%
% reduction after 96 h ([1]; 20 ml DPD): 0%
Average reduction 24 and 48 h (%) ([1]; 50 ml DPD): 33%
Milk yield After 24 h ([1]; 50 ml DPD): 10.03 kg
Milk yield After 48 h ([1]; 50 ml DPD): 8.38 kg
Milk yield After 72 h ([1]; 50 ml DPD): 14.16 kg
Milk yield After 96 h ([1]; 50 ml DPD): 13.68 kg
Milk yield Last milking ([1]; 50 ml DPD): 13.73 kg
% reduction after 24 h ([1]; 50 ml DPD): 27%
% reduction after 48 h ([1]; 50 ml DPD): 39%
% reduction after 72 h ([1]; 50 ml DPD): −3.1%
% reduction after 96 h ([1]; 50 ml DPD): 0%
Average reduction 24 and 48 h (%) ([1]; 80 ml DPD): 55%
Milk yield After 24 h ([1]; 80 ml DPD): 8.46 kg
Milk yield After 48 h ([1]; 80 ml DPD): 7.40 kg
Milk yield After 72 h ([1]; 80 ml DPD): 15.63 kg
Milk yield After 96 h ([1]; 80 ml DPD): 17.65 kg
Milk yield Last milking ([1]; 80 ml DPD): 17.63 kg
% reduction after 24 h ([1]; 80 ml DPD): 52%
% reduction after 48 h ([1]; 80 ml DPD): 58%
% reduction after 72 h ([1]; 80 ml DPD): 11.3%
% reduction after 96 h ([1]; 80 ml DPD): 0%
behavior of the cows ([1]; 80 ml or more DPD): became restless and showed a more active behavior
Average reduction 24 and 48 h (%) ([1]; 100 ml DPD): 51%
Milk yield After 24 h ([1]; 100 ml DPD): 8.12 kg
Milk yield After 48 h ([1]; 100 ml DPD): 8.44 kg
Milk yield After 72 h ([1]; 100 ml DPD): 13.33 kg
Milk yield After 96 h ([1]; 100 ml DPD): 16.55 kg
Milk yield Last milking ([1]; 100 ml DPD): 16.23 kg
% reduction after 24 h ([1]; 100 ml DPD): 50%
% reduction after 48 h ([1]; 100 ml DPD): 52%
% reduction after 72 h ([1]; 100 ml DPD): 17.9%
% reduction after 96 h ([1]; 100 ml DPD): −0.2%
Average reduction 24 and 48 h (%) ([1]; 150 ml DPD): 62%
Milk yield After 24 h ([1]; 150 ml DPD): 8.72 kg
Milk yield After 48 h ([1]; 150 ml DPD): 5.17 kg
Milk yield After 72 h ([1]; 150 ml DPD): 11.24 kg
Milk yield After 96 h ([1]; 150 ml DPD): 14.63 kg
Milk yield Last milking ([1]; 150 ml DPD): 14.78 kg
% reduction after 24 h ([1]; 150 ml DPD): 59%
% reduction after 48 h ([1]; 150 ml DPD): 65%
% reduction after 72 h ([1]; 150 ml DPD): 24%
% reduction after 96 h ([1]; 150 ml DPD): 0%
Average reduction 24 and 48 h (%) ([1]; 175 ml DPD): 55%
Milk yield After 24 h ([1]; 175 ml DPD): 8.44 kg
Milk yield After 48 h ([1]; 175 ml DPD): 8.75 kg
Milk yield After 72 h ([1]; 175 ml DPD): 13.24 kg
Milk yield Last milking ([1]; 175 ml DPD): 15.63 kg
% reduction after 24 h ([1]; 175 ml DPD): 54%
% reduction after 48 h ([1]; 175 ml DPD): 56%
% reduction after 72 h ([1]; 175 ml DPD): 15.3%
Average reduction 24 and 48 h (%) ([1]; 200 ml DPD): 52%
Milk yield After 24 h ([1]; 200 ml DPD): 11.29 kg
Milk yield After 48 h ([1]; 200 ml DPD): 10.87 kg
Milk yield After 72 h ([1]; 200 ml DPD): 13.56 kg
Milk yield Last milking ([1]; 200 ml DPD): 21.31 kg
% reduction after 24 h ([1]; 200 ml DPD): 53%
% reduction after 48 h ([1]; 200 ml DPD): 51%
% reduction after 72 h ([1]; 200 ml DPD): 36.4%
behavior and eating behavior of the cows ([1]; after DPD administration): relaxed and quiet behavior and no change in eating behavior was observed
adverse effects ([1]; dose of 200 grams administered to a cow): without demonstrating any adverse effects
effect on milk yield ([1]; more than 80 ml DPD): no further decrease of milk yield was observed
behavior of the cows ([1]; more than 100 ml DPD): looked like to become more active
dosage at which the milk yield decrease became visible ([1]; single oral dose): ≥ 20 mL
dosage giving maximum response (milk yield decrease) ([1]; single oral dose): ≥ 80 mL
duration of the effect of DPD on milk yield ([1]; single oral dose): disappears on the 3rd and 4th day after treatment
behavior of the cows ([1]; until 80 ml DPD): no undesired behavior of the cows was observed
side effects ([2]; 80 ml synthetic DPD after last milking, 46 cows): None of the cows showed any side effects
milk fever at calving ([2]; 80 ml synthetic DPD at dry off): None of the cows had milk fever at calving
average SCC (somatic cell count) ([2]; 80 ml synthetic DPD at dry off, first milk recording of the new lactation): 58,000 cells/ml
milk leakage [2, 3]: less milk leakage
stress [2, 3]: lower
udder pressure [2, 3]: lower udder pressure
average SCC (somatic cell count) ([2]; last milk recording of the last lactation (before dry off)): 89,000 cells/ml
